Assay results reported in the supplement of paper PMC10307832.

What was measured:
Test in all cases: relative viability (nuclei count vs DMSO), 5 days (fraction); higher = more cells survive
FG-4592 + Tozasertib = compound: Cc1nc(C(=O)NCC(=O)O)c(O)c2ccc(Oc3ccccc3)cc12 [FG-4592] + Cc1cc(Nc2cc(N3CCN(C)CC3)nc(Sc3ccc(NC(=O)C4CC4)cc3)n2)n[nH]1 [Tozasertib] (partner 0.1 µM)
How it was run: (§1)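 Values are medians from duplicate plates. Each reflects relative viability, defined as the nuclei count of treated wells over that of vehicle wells. Lung cancer cell lines in 1536-well plates were pin-tool dosed one day after seeding with one drug alone or with a fixed anchor-drug dose plus five library-drug doses (not always all listed) in √10 steps, then fixed, stained and imaged at 4× after 5 days.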

FG-4592 + Olaparib = compound: Cc1nc(C(=O)NCC(=O)O)c(O)c2ccc(Oc3ccccc3)cc12 [FG-4592] + O=C(c1cc(Cc2n[nH]c(=O)c3ccccc23)ccc1F)N1CCN(C(=O)C2CC2)CC1 [Olaparib] (partner 8 µM)
How it was run: as §1

FG-4592 + Luminespib = compound: Cc1nc(C(=O)NCC(=O)O)c(O)c2ccc(Oc3ccccc3)cc12 [FG-4592] + CCNC(=O)c1noc(-c2cc(C(C)C)c(O)cc2O)c1-c1ccc(CN2CCOCC2)cc1 [Luminespib] (partner 0.01 µM)
How it was run: as §1

IU1-47 + Vorinostat = compound: CC1=CC(=C(N1C2=CC=C(C=C2)Cl)C)C(=O)CN3CCCCC3 [IU1-47] + O=C(CCCCCCC(=O)Nc1ccccc1)NO [Vorinostat] (partner 1 µM)
How it was run: as §1

Cell Line | relative viability (FG-4592 + Tozasertib; first compound 0.08 µM) | relative viability (FG-4592 + Tozasertib; first compound 0.253 µM) | relative viability (FG-4592 + Tozasertib; first compound 0.8 µM) | relative viability (FG-4592 + Tozasertib; first compound 2.53 µM) | relative viability (FG-4592 + Tozasertib; first compound 8 µM) | relative viability (FG-4592 + Olaparib; first compound 0.08 µM) | relative viability (FG-4592 + Olaparib; first compound 0.253 µM) | relative viability (FG-4592 + Olaparib; first compound 0.8 µM) | relative viability (FG-4592 + Olaparib; first compound 2.53 µM) | relative viability (FG-4592 + Olaparib; first compound 8 µM) | relative viability (FG-4592 + Luminespib; first compound 0.08 µM) | relative viability (FG-4592 + Luminespib; first compound 0.253 µM) | relative viability (FG-4592 + Luminespib; first compound 0.8 µM) | relative viability (FG-4592 + Luminespib; first compound 2.53 µM) | relative viability (FG-4592 + Luminespib; first compound 8 µM) | relative viability (IU1-47 + Vorinostat; first compound 0.08 µM) | relative viability (IU1-47 + Vorinostat; first compound 0.253 µM) | relative viability (IU1-47 + Vorinostat; first compound 0.8 µM) | relative viability (IU1-47 + Vorinostat; first compound 2.53 µM) | relative viability (IU1-47 + Vorinostat; first compound 8 µM)
NCI-H2342 | 0.493 | 0.43 | 0.442 | 0.464 | 0.421 | 0.433 | 0.436 | 0.452 | 0.436 | 0.422 | 0.674 | 0.71 | 0.576 | 0.783 | 0.537 | 0.833 | 0.836 | 0.975 | 1.03 | 0.825
ChaGo-K-1 | 0.241 | 0.219 | 0.224 | 0.237 | 0.208 | 0.44 | 0.399 | 0.4 | 0.461 | 0.456 | 0.522 | 0.548 | 0.594 | 0.702 | 0.459 | 0.835 | 0.766 | 0.806 | 0.623 | 0.717
NCI-H650 | 0.73 | 0.703 | 0.746 | 0.691 | 0.697 | 0.343 | 0.32 | 0.44 | 0.364 | 0.354 | 0.766 | 0.797 | 0.597 | 0.746 | 0.713 | 0.61 | 0.562 | 0.451 | 0.37 | 0.483
COR-L23 | 0.186 | 0.212 | 0.217 | 0.153 | 0.171 | 0.331 | 0.358 | 0.358 | 0.3 | 0.369 | 0.757 | 0.524 | 0.645 | 0.611 | 0.593 | 0.383 | 0.514 | 0.439 | 0.466 | 0.404
COR-L 105 | 0.348 | 0.375 | 0.359 | 0.297 | 0.35 | 0.767 | 0.787 | 0.792 | 0.719 | 0.635 | 0.779 | 0.696 | 0.752 | 0.847 | 0.776 | 1.02 | 1.01 | 0.779 | 0.745 | 0.958
LK-2 | 0.155 | 0.17 | – | 0.175 | 0.186 | 0.556 | 0.787 | 0.613 | 0.701 | 0.662 | 0.227 | 0.168 | – | 0.146 | 0.177 | 0.21 | 0.195 | 0.175 | 0.331 | 0.274
201T | 0.856 | 0.965 | 1.06 | 0.998 | 0.946 | 0.841 | 0.794 | 0.843 | 0.878 | 0.827 | 1.04 | 0.984 | 1.06 | 1.03 | 1.06 | 1.08 | 1.03 | 1.07 | 0.356 | 0.915
HCC-44 | 1.08 | 0.84 | – | 0.783 | 0.852 | 0.971 | 0.921 | 1.03 | 1 | 1.01 | 1.05 | 1.01 | – | 0.934 | 1.05 | 1.16 | 1.09 | 1.11 | 1.13 | 1.09
NCI-H596 | 0.975 | 0.916 | 0.867 | 0.893 | 0.682 | 0.663 | 0.641 | – | 0.708 | 0.625 | 1.14 | 1.08 | 0.886 | 1.15 | 0.676 | 0.715 | – | 0.662 | 0.658 | 0.587
H3255 | 0.718 | 0.626 | 0.608 | 0.601 | 0.642 | 0.586 | 0.546 | 0.611 | 0.629 | 0.622 | 0.891 | 0.804 | 0.848 | 0.945 | 0.875 | 0.918 | 0.883 | 1.02 | – | 0.669
NCI-H647 | 0.365 | 0.302 | 0.311 | 0.264 | 0.166 | 0.597 | 0.533 | 0.489 | 0.635 | 0.416 | 0.183 | 0.181 | 0.174 | 0.201 | 0.109 | 0.519 | 0.587 | 0.691 | 0.917 | 0.726
NCI-H2023 | 0.354 | 0.357 | 0.374 | 0.348 | 0.258 | 0.402 | 0.471 | 0.437 | 0.464 | 0.35 | 0.617 | 0.634 | 0.698 | 0.773 | 0.599 | 0.699 | 0.767 | 0.668 | 0.497 | 0.748
NCI-H23 | 0.412 | 0.4 | 0.418 | 0.346 | 0.431 | 0.34 | 0.333 | 0.365 | 0.321 | 0.296 | 0.208 | 0.247 | 0.179 | 0.203 | 0.184 | 0.661 | – | 0.653 | 0.666 | 0.622
NCI-H1944 | 0.254 | 0.252 | 0.224 | 0.242 | 0.254 | 0.437 | 0.392 | 0.443 | 0.376 | 0.419 | 0.762 | 0.716 | 0.728 | 0.891 | 0.763 | 0.567 | 0.59 | 0.593 | 0.5 | 0.524
NCI-H1793 | 0.435 | 0.388 | – | 0.362 | 0.317 | – | 0.727 | – | 0.827 | 0.71 | 0.155 | 0.227 | – | 0.157 | 0.185 | 0.628 | – | 0.77 | 0.64 | 0.686
NCI-H520 | – | 0.479 | – | 0.479 | 0.391 | 0.361 | 0.342 | 0.303 | 0.391 | 0.385 | 0.22 | 0.209 | – | 0.204 | 0.201 | 0.783 | 0.671 | 0.681 | 0.685 | 0.589
NCI-H460 | 0.381 | 0.419 | 0.42 | 0.592 | 0.487 | 0.445 | 0.449 | 0.462 | 0.51 | 0.43 | 0.0351 | 0.0212 | 0.0354 | 0.0343 | 0.0187 | 0.766 | 0.724 | 1.05 | 0.819 | 0.801
